Test results taken from BigSolDB 2.1.

OC[C@H]1O[C@@H](Oc2ccc(O)cc2)[C@H](O)[C@@H](O)[C@@H]1O
solubility (mole fraction)
Conditions	283.15 K	288.15 K	293.15 K	298.15 K	303.15 K	308.15 K	313.15 K	318.15 K	323.15 K
in 2-butanone	0.000188	0.000212	0.000243	0.00026	0.000297	0.000346	0.000418	0.00045	0.000524
in acetone	0.000686	0.00071	0.000773	0.000799	0.000867	0.00101	0.00118	0.00127	0.00143
in acetonitrile	8.17e-05	9.3e-05	0.000124	0.000149	0.000163	0.000211	0.000236	0.000318	0.000362
in ethanol	0.00263	0.00268	0.0029	0.00309	0.00353	0.00419	0.00477	0.00551	0.0059
in ethyl acetate	8.03e-05	8.14e-05	8.6e-05	9.09e-05	9.62e-05	0.000104	0.000112	0.000124	0.000156
in ethylene glycol	0.0471	0.0486	0.0507	0.0527	0.0549	0.0572	0.0601	0.0631	0.0666
in isobutanol	0.000225	0.000279	0.000303	0.000394	0.000454	0.000572	0.000668	0.000911	0.00104
in isopropanol	0.000727	0.000858	0.0009	0.00108	0.00125	0.0016	0.00191	0.00216	0.00261
in methanol	0.0113	0.0117	0.0123	0.0132	0.0143	0.016	0.0176	0.0191	0.0221
in methyl acetate	0.000112	0.000129	0.00014	0.000154	0.000185	0.000239	0.000277	0.000353	0.00041
in n-butanol	0.000376	0.000499	0.000566	0.000699	0.00075	0.001	0.00115	0.00131	0.00144
in n-propanol	0.000764	0.000889	0.00103	0.00115	0.00128	0.00155	0.00181	0.00207	0.0023
